Results on two molecules are retold here after patent US9637499B2, “Benzodioxole or benzodioxepine heterocyclic compounds as phosphodiesterase inhibitors” (LEO PHARMA A/S, priority 2010, dated 2017).

Molecules are shown by their SMILES.

One may read the IC50 as the concentration needed to halve the response being measured. As a reminder, the bioavailability is dose-corrected exposure relative to a reference, in per cent. A low value points to poor availability.

Data set [1] has as its target Human recombinant PDE4 (Genbank accession no NM_006203) (Homo sapiens (Human), UniProt Q08499). The data set is described as follows: PDE4 Assay (SPA, cAMP cleavage). It counts as biochemical. The following applies: human recombinant PDE4, 1 hour incubation, cAMP 1x10-5 M. As to the method: At the end of the incubation, the cleavage of the substrate was evaluated by the binding of the AMP product to SPA beads, which generate chemoluminescence when bound to the radioactive tracer. The AMP product inhibited the binding of the radioactive tracer to the beads, and the luminescent signal was competed.
The results were calculated as the molar concentrations resulting in 50% inhibition of the substrate cleavage compared to controls samples, and are expressed as IC50 (M).

The nature of data set [2]: In vivo pharmacokinetic analyses in rat, oral dosing. The conditions noted are these: serum, PO dosing 5 mg/kg. The procedure: One rat is dosed orally (5 mg/kg—dissolved in DMSO/H2O/propylenglycol [1:5:4]) and blood samples are taken from the sublingual venous plexus at 30 min, 1 h, 2 h, 4 h and 6 h. Blood samples are taken in BD Vacutainer SST serum separation tubes, serum is isolated by centrifugation, transferred to micronics tubes and subsequently analysed.
Mass spectrometer (API5000 series) parameters are optimised to analyse for the specific compounds and test injections are performed to confirm the validity of the established generic chromatography method. The generic method is based on fast gradient (2.5 min) analysis on C18 column with mobile phases consisting methanol, ammonium acetate, formic acid and water.
Standards are prepared in rat serum to cover the analytical range 0.1 to 300 ng/ml. Standards, blank serum and study samples are applied to 96 deepwell plate and proteins are precipitated by addition of acetonitrile containing internal standard. Samples are analysed on LC-MS/MS usually overnight. Integration and quantification is performed on ration between analyte and internal standard using Analyst software version 1.5. Pharmacokinetic parameters are calculated using a standardised Excel spreadsheet.
In vivo pharmacokinetic profile in rat of compound 101 disclosed in WO 2008/104175 and compound 105 and 106 disclosed in examples 5 and 6, respectively: […]

Human recombinant PDE4 (Genbank accession no NM_006203), sequence (Q08499 other isoform, or with tags, fused parts or gaps): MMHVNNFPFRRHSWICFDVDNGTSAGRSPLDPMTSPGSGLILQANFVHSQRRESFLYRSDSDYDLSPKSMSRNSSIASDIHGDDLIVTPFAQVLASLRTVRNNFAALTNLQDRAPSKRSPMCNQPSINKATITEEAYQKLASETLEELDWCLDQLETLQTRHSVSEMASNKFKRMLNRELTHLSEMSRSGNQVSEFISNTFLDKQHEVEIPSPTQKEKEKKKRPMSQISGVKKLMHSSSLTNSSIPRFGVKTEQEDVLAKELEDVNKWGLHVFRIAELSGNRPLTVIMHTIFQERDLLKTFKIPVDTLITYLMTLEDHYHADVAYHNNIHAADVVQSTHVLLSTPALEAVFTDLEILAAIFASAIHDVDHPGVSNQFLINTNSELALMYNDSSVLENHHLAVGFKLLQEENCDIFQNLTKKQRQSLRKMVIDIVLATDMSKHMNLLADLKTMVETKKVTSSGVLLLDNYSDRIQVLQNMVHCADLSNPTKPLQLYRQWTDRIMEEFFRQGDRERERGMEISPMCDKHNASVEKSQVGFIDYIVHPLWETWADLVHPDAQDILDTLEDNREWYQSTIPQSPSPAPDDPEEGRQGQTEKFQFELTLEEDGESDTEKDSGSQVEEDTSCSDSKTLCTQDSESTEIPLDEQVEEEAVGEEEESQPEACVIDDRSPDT

As to `O=C(Nc1c(Cl)c[n+](O)cc1Cl)c1ccc(OC(F)F)c2c1OC1(CCS(=O)(=O)CC1)O2` [compound 111, N-(3,5-dichloro-1-oxo-4-pyridyl)-7-(difluoromethoxy)-1′,1′-dioxo-spiro[1,3-benzodioxole-2,4′-thiane]-4-carboxamide], the IC50 in data set [1] worked out at 106 nM.

Consider `O=C(Cc1c(Cl)c[n+]([O-])cc1Cl)c1ccc(OC(F)F)c2c1OC1(CCOCC1)O2` [compound 106, 2-(3,5-Dichloro-1-oxido-pyridine-4-yl)-1-(7-difluoromethoxy-2′,3′,5′,6′-tetrahydro-spiro[1,3-benzodioxole-2,4′-(4H)-pyran]-4-yl)ethanone], for which the bioavailability in data set [2] turned out to be 22%.
